Reference: patent US9951049B2, “Pyrazole linked benzimidazole conjugates and a process for preparation thereof” (Council of Scientific & Industrial Reseach, priority 2014, dated 2018)

What was measured:
[1] = test system: fifty six human tumor cell lines; assay: NCI human tumor cell line screen (48 h, SRB), all cell lines; conditions: various cell lines
Renal cancer cell lines = assay: NCI SRB screen, Renal panel average; conditions: Homo sapiens, 48 h, read-out: Log10 GI50 (converted)
Leukemia cell lines = assay: NCI SRB screen, Leukemia panel average; conditions: Homo sapiens, 48 h, read-out: Log10 GI50 (converted)
Breast Cancer cell lines = assay: NCI SRB screen, Breast Cancer panel average; conditions: Homo sapiens, 48 h, read-out: Log10 GI50 (converted)
Melanoma cell lines = assay: NCI SRB screen, Melanoma panel average; conditions: Homo sapiens, 48 h, read-out: Log10 GI50 (converted)
[2] = test system: Prostate cancer cell lines; assay: NCI SRB screen, Prostate panel average; conditions: Homo sapiens, 48 h, read-out: Log10 GI50 (converted)
Colon cancer cell lines = assay: NCI SRB screen, Colon panel average; conditions: Homo sapiens, 48 h, read-out: Log10 GI50 (converted)
CNS cancer cell lines = assay: NCI SRB screen, CNS panel average; conditions: Homo sapiens, 48 h, read-out: Log10 GI50 (converted)
[3] = test system: Non-small-cell lung cancer cell lines; assay: NCI SRB screen, Non-small-cell lung panel average; conditions: Homo sapiens, 48 h, read-out: Log10 GI50 (converted)
[4] = test system: Ovarian cancer cell lines; assay: NCI SRB screen, Ovarian panel average; conditions: Homo sapiens, 48 h, read-out: Log10 GI50 (converted)

COc1ccc(-c2cc(-c3nc4cc(F)ccc4[nH]3)[nH]n2)c(OC)c1 [7e, 2-(3-(2,4-dimethoxyphenyl)-1H-pyrazol-5-yl)-5-fluoro-1H-benzo[d]imidazole]
mean graph pattern: profile of activity and selectivity [1]: an interesting profile of activity and selectivity

COc1ccc(-c2cc(-c3nc4cc(Cl)ccc4[nH]3)[nH]n2)c(OC)c1 [8e, 5-chloro-2-(3-(2,4-dimethoxyphenyl)-1H-pyrazol-5-yl)-1H-benzo[d]imidazole]
mean graph pattern: profile of activity and selectivity [1]: an interesting profile of activity and selectivity

COc1ccc(-c2cc(-c3nc4cc(Cl)c(Cl)cc4[nH]3)[nH]n2)c(OC)c1 [10e, 5,6-dichloro-2-(3-(2,4-dimethoxyphenyl)-1H-pyrazol-5-yl)-1H-benzo[d]imidazole]
mean graph pattern: profile of activity and selectivity [1]: an interesting profile of activity and selectivity

COc1ccc(-c2cc(-c3nc4cc(C(F)(F)F)ccc4[nH]3)[nH]n2)c(OC)c1 [11e, 2-(3-(2,4-dimethoxyphenyl)-1H-pyrazol-5-yl)-5-(trifluoromethyl)-1H-benzo[d]imidazole]
mean graph pattern: profile of activity and selectivity [1]: an interesting profile of activity and selectivity

COc1ccc(-c2cc(-c3nc4cc([N+](=O)[O-])ccc4[nH]3)[nH]n2)c(OC)c1 [12e, 2-(3-(2,4-dimethoxyphenyl)-1H-pyrazol-5-yl)-5-nitro-1H-benzo[d]imidazole]
mean graph pattern: profile of activity and selectivity [1]: an interesting profile of activity and selectivity

COc1ccc(-c2cc(-c3nc4cc(Cl)c(F)cc4[nH]3)[nH]n2)c(OC)c1 [13e, 5-chloro-2-(3-(2,4-dimethoxyphenyl)-1H-pyrazol-5-yl)-6-fluoro-1H-benzo[d]imidazole]
mean graph pattern: profile of activity and selectivity [1]: an interesting profile of activity and selectivity

COC(=O)Nc1nc2ccc(C(=O)c3cccs3)cc2[nH]1 [Nocodazole, reference compound]
GI50 (Renal cancer cell lines): 107 nM | GI50 (Leukemia cell lines): 12.3 nM | GI50 (Breast Cancer cell lines): 155 nM | GI50 (Melanoma cell lines): 22.4 nM | GI50 [2]: 14.5 nM | GI50 (Colon cancer cell lines): 17.8 nM | GI50 (CNS cancer cell lines): 22.9 nM | GI50 [3]: 20.4 nM | GI50 [4]: 145 nM
